In patent US5486597A, “Tetrapeptide derivatives and analogues” (James Black Foundation Limited, priority 1990, dated 1996):
Non-standard residues stand in square brackets, D forms with d. Residues, ends and D or L forms follow the SMILES beside them. *: point of attachment. Trp(1-Me) = Cn1cc(C[C@H](N)C(=O)O)c2ccccc21; Phe(4-Cl) = N[C@@H](Cc1ccc(Cl)cc1)C(=O)O; αMeW = C[C@](N)(Cc1c[nH]c2ccccc12)C(=O)O; 2Nal = N[C@@H](Cc1ccc2ccccc2c1)C(=O)O; d1Nal = N[C@H](Cc1cccc2ccccc12)C(=O)O; Fmoc = O=C(OCC1c2ccccc2-c2ccccc21)*; Adoc = O=C(OC12CC3CC(CC(C3)C1)C2)*; Boc = CC(C)(C)OC(=O)*

Key:
[1] = biological target: T1, cholecystokinin receptors (Cavia porcellus, UniProt Q63931); assay: CCK-antagonist activity in isolated guinea-pig gall-bladder strip preparations; type: cell-based; conditions: guinea-pig gall-bladder strips; CCK-8 as agonist; test compound incubated for 60 minutes; standard errors less than 5%
T1 construct: Isolated, strip preparations were prepared from gall-bladders removed from male Dunkin-Hartley guinea-pigs; from tissue; host or cells: guinea-pig gall-bladder strips
T1 sequence (Q63931 1-430): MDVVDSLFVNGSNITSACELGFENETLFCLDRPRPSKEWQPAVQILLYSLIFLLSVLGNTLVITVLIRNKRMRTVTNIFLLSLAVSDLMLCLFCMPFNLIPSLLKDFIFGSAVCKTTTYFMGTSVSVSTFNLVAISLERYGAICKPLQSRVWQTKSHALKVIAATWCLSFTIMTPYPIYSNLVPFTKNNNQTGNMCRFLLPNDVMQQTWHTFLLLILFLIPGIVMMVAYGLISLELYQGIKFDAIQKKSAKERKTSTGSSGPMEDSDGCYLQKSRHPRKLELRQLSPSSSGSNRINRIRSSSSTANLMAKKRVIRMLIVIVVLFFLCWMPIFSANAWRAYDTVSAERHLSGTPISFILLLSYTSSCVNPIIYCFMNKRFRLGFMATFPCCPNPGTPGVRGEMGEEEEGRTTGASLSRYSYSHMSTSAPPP
Description: The compounds of the invention were also assayed for CCK-antagonist activity as follows:
Isolated, strip preparations were prepared from gall-bladders removed from male Dunkin-Hartley guinea-pigs (250-500 g body weight) according to the method of La Morte, W. W., et al., J.P.E.T., 217, (3), 638-644 (1981).
The complete gall-bladder is removed and opened along the longitudinal axis. Strips measuring 3 mm in the longitudinal axis and 1 mm in the transverse axis are cut and then tied with cotton to stainless steel wires. The preparation is connected to a GRASS FTO3 isometric transducer under an initial loading tension of 1 g and is immersed in 20 mls of Krebs solution maintained at 37° C. and gassed with 95% O2 /5% CO2. The Krebs solution is as detailed above in connection with the fundus assay, except that the Ca^2+ concentration is decreased to 0.5 mM. After 30 mins the preparation is washed. Drug addition begins after an initial 90 min stabilisation period. Responses are measured as changes in tension from that immediately prior to any drug addition. Single cumulative agonist concentration-effect curves, using CCK-8 as agonist, are obtained on each preparation in the absence and presence of test compound which has been incubated for 60 minutes. The antagonist activity of the test compound is estimated and expressed as the negative logarithm (base 10) of the equilibrium dissociation constants (pK8) using the modifications of standard competitive analysis described by Black et al., Br. J. Pharmacol.,86,571-579, (1985) and Shankley et al., Br. J. Pharmacol.,94,264-274 (1988).

gastrin receptor = biological target: T2, gastrin receptor (Mus musculus, UniProt P56481); assay: mouse stomach assay for gastrin activity (isolated stomach, acid secretion); type: cell-based; conditions: for pKB mouse stomach / Kb: isolated mouse stomach assay, gastrin antagonism, standard errors less than 5%; for Acid seretion at 10^-5 M test compound, relative to pentagastrin (%): mouse stomach, NS = not significant; for Kb: read-out: pKB mouse stomach (converted)
T2 construct: assayed for gastrin activity using the mouse stomach assay; from tissue; host or cells: isolated mouse stomach
T2 sequence (P56481 1-453): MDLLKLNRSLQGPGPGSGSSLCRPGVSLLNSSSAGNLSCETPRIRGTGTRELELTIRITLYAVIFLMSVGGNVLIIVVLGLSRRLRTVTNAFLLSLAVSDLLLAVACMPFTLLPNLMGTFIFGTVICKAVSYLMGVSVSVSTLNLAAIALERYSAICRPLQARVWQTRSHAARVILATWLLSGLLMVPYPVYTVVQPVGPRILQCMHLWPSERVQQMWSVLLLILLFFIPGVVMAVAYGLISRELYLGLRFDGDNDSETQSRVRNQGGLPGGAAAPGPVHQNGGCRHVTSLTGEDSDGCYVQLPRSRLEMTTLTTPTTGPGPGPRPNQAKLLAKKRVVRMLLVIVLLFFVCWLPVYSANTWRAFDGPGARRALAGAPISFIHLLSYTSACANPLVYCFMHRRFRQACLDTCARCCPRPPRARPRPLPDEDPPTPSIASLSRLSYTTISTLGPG
Description: The compounds were assayed for gastrin activity using the mouse stomach assay as described by Black, J. W. and Shankley, N. P., Br. J. Pharmacol., 86, 571-579, (1985), and also in the guinea-pig fundus assay, as follows: […]

Molecule | pKB [1] | Acid seretion at 10^-5 M test compound, relative to pentagastrin (%) (gastrin receptor) | other results
CNC(=O)[C@H](Cc1ccccc1)NC(=O)[C@H](CC(=O)O)NC(=O)[C@H](Cc1ccc2ccccc2c1)NC(=O)[C@H](Cc1c[nH]c2ccccc12)NC(=O)OC(C)(C)C [Example 5, N-t-Butyloxycarbonyl-L-tryptophyl-L-3-(2-naphthyl)alanyl-L-aspartyl-L-phenylalanyl-(N-methyl)amide] (Boc-W[2Nal]DF-NHMe) | 5.4 | 23% | pKB mouse stomach (gastrin receptor): 5.6
CC(C)(C)OC(=O)N[C@@H](Cc1c[nH]c2ccccc12)C(=O)N[C@@H](Cc1ccc2ccccc2c1)C(=O)N[C@@H](CC(=O)O)C(=O)N[C@@H](Cc1ccc(Cl)cc1)C(N)=O [Example 11, N-t-Butyloxycarbonyl-L-tryptophyl-L-3-(2-naphthyl)alanyl-L-aspartyl-L-(4-chlorophenylalanin)amide] (Boc-W[2Nal]D[Phe(4-Cl)]-NH2) | 5.9 | 60% | pKB mouse stomach (gastrin receptor): 6.6
NC(=O)[C@H](Cc1ccccc1)NC(=O)[C@H](CC(=O)O)NC(=O)[C@H](Cc1ccc2ccccc2c1)NC(=O)[C@H](Cc1c[nH]c2ccccc12)NC(=O)OC12CC3CC(CC(C3)C1)C2 [Example 13, N-1-Adamantyloxycarbonyl-L-tryptophyl-L-3-(2-naphthyl)alanyl-L-aspartyl-L-phenylalaninamide] (Adoc-W[2Nal]DF-NH2) |  |  | Kb [1]: 1260 nM
COc1ccc(CCNC(=O)[C@H](CC(=O)O)NC(=O)[C@H](Cc2ccc3ccccc3c2)NC(=O)[C@H](Cc2c[nH]c3ccccc23)NC(=O)OC23CC4CC(CC(C4)C2)C3)cc1 [Example 14, N-1-Adamantyloxycarbonyl-L-tryptophyl-L-3-(2-naphthyl)alanyl-L-aspartyl-4-methoxyphenethylamide] | 6.0 |  | 
NC(=O)[C@H](Cc1ccccc1)NC(=O)[C@H](CC(=O)O)NC(=O)[C@H](Cc1ccc2ccccc2c1)NC(=O)[C@H](Cc1c[nH]c2ccccc12)NC(=O)OCC1c2ccccc2-c2ccccc21 [Example 16, N-9-Fluorenylmethoxycarbonyl-L-tryptophyl-L-3-(2-naphthyl)alanyl-L-aspartyl-L-phenylalaninamide] (Fmoc-W[2Nal]DF-NH2) |  | 67% | Kb [1]: 2510 nM; Kb (gastrin receptor): 2000 nM
CC(C)(C)OC(=O)N[C@@](C)(Cc1c[nH]c2ccccc12)C(=O)N[C@@H](Cc1ccc2ccccc2c1)C(=O)N[C@@H](CC(=O)O)C(=O)N[C@@H](Cc1ccccc1)C(N)=O [Example 17, N-t-Butyloxycarbonyl-a-methyl-tryptophyl-L-3-(2-naphthyl)alanyl-L-aspartyl-L-phenylalaninamide] (Boc-[αMeW][2Nal]DF-NH2) | 5.5 | 44% | pKB mouse stomach (gastrin receptor): 5.9
NC(=O)[C@H](Cc1ccccc1)NC(=O)[C@H](CC(=O)O)NC(=O)[C@H](Cc1ccc2ccccc2c1)NC(=O)Cc1c[nH]c2ccccc12 [Example 20, Indole-3-acetamido-L-3-(2-naphthyl)alanyl-L-aspartyl-L-phenylalaninamide] | 6.7 | 33% | pKB mouse stomach (gastrin receptor): 6.2
NC(=O)[C@H](Cc1ccccc1)NC(=O)[C@H](CC(=O)O)NC(=O)[C@H](Cc1ccc2ccccc2c1)NC(=O)CCc1c[nH]c2ccccc12 [Example 21, Indole-3-propionamido-L-3-(2-naphthyl)alanyl-L-aspartyl-L-phenylalaninamide] | 6.2 |  | 
CC(C)(C)OC(=O)N[C@H](Cc1c[nH]c2ccccc12)C(=O)N[C@@H](Cc1ccc2ccccc2c1)C(=O)N[C@@H](CC(=O)O)C(=O)N[C@@H](Cc1ccccc1)C(N)=O [Example 22, N-t-Butyloxycarbonyl-D-tryptophyl-L-3-(2-naphthyl)alanyl-L-aspartyl-L-phenylalaninamide] (Boc-[dW][2Nal]DF-NH2) |  |  | Kb [1]: 631 nM
CC(C)(C)OC(=O)N[C@@H](Cc1c[nH]c2ccccc12)C(=O)N[C@H](Cc1cccc2ccccc12)C(=O)N[C@@H](CC(=O)O)C(=O)N[C@@H](Cc1ccccc1)C(N)=O [Example 24, N-t-Butyloxycarbonyl-L-tryptophyl-D-3-(1-naphthyl)alanyl-L-aspartyl-L-phenylalaninamide] (Boc-W[d1Nal]DF-NH2) |  | 50% | Kb [1]: 316 nM; Kb (gastrin receptor): 251 nM
CC(C)(C)OC(=O)N[C@@H](Cc1c[nH]c2ccccc12)C(=O)N[C@@H](Cc1ccc2ccccc2c1)C(=O)N[C@@H](CC(=O)O)C(=O)NCCc1ccc(C(F)(F)F)cc1 [Example 28, N-t-Butyloxycarbonyl-L-tryptophyl-L-3-(2-naphthyl)alanyl-L-aspartyl-4-trifluoromethylphenethylamide] | 6.4 |  | 
CC(C)(C)OC(=O)N[C@@H](Cc1c[nH]c2ccccc12)C(=O)N[C@@H](Cc1ccc2ccccc2c1)C(=O)N[C@@H](CC(=O)O)C(=O)NCC12CC3CC(CC(C3)C1)C2 [Example 35, N-t-Butyloxycarbonyl-L-tryptophyl-L-3-(2-naphthyl)alanyl-L-aspartyl-1-adamantylmethylamide] | 5.8 |  | 
CC(C)(C)OC(=O)N[C@@H](Cc1c[nH]c2ccccc12)C(=O)N[C@@H](Cc1ccc2ccccc2c1)C(=O)N[C@@H](CC(=O)O)C(=O)NCCc1ccc2c(c1)CCCC2 [Example 43, N-t-Butyloxycarbonyl-L-tryptophyl-L-3-(2-naphthyl)alanyl-L-aspartyl-2-(5,6,7,8-tetrahydronaphthyl)ethylamide] | 6.5 |  | 
Cn1cc(C[C@H](NC(=O)OC(C)(C)C)C(=O)N[C@@H](Cc2ccc3ccccc3c2)C(=O)N[C@@H](CC(=O)O)C(=O)N[C@@H](Cc2ccccc2)C(N)=O)c2ccccc21 [Example 45, N-t-Butyloxycarbonyl-L-N^in-methyltryptophyl-L-3-(2-naphthyl)alanyl-L-aspartyl-L-phenylalaninamide] (Boc-[Trp(1-Me)][2Nal]DF-NH2) | 6.1 |  | 
CC(C)(C)OC(=O)N[C@@H](Cc1c[nH]c2ccccc12)C(=O)N[C@@H](Cc1ccc2ccccc2c1)C(=O)N[C@@H](CC(=O)O)C(=O)NCCc1cccc(C(F)(F)F)c1 [Example 50, N-t-Butyloxycarbonyl-L-tryptophyl-L-3-(2-naphthyl)alanyl-L-aspartyl-3-trifluoromethylphenethylamide] | 6.1 |  | 
CC(C)(C)OC(=O)N[C@@H](Cc1c[nH]c2ccccc12)C(=O)N[C@@H](Cc1ccc2ccccc2c1)C(=O)N[C@@H](CC(=O)O)C(=O)NC1Cc2ccccc2C1 [Example 53, N-t-Butyloxycarbonyl-L-tryptophyl-L-3-(2-naphthyl)alanyl-L-aspartyl-2-indanylamide] | 6.6 |  | 
COc1cc(OC)c(CCNC(=O)[C@H](CC(=O)O)NC(=O)[C@H](Cc2ccc3ccccc3c2)NC(=O)[C@H](Cc2c[nH]c3ccccc23)NC(=O)OC(C)(C)C)c(OC)c1 [Example 55, N-t-Butyloxycarbonyl-L-tryptophyl-L-3-(2-naphthyl)alanyl-L-aspartyl-2,4,6-trimethoxyphenethylamide] | 6.4 |  | 
N-t-Butyloxycarbonyl-L-tryptophyl-L-3-(2-naphthyl)alanyl-L-aspartyl-2,4-dichlorophenethylamide [Example 37] | 6.4 |  | 
